What was measured:
[1] = Liptin-PG binding in solution (ITC and/or 1H NMR titration); conditions: ITC; 50% DMSO, 45% CHCl3, 5% CH3OH
Method: The lipid binding ability of liptins 1-3 (FIG. 2A) have been investigated in solution using isothermal titration calorimetry (ITC) and/or ^1H NMR. Stoichiometry of binding was accomplished with Job plots using ^1H NMR. […] The use of organic solvents allowed the determination of binding motif using ^1H NMR.
Liptins 1b, 1e, 2c, 2d, 3a, 3c in DMF/5% CHCl3; 3e in 50% DMSO, 45% CHCl3, 5% CH3OH.
Liptins 1h and 1i 40% DMSO, 60% CHCl3, 3f in 20% DMSO, 80% CHCl3.

[2] = Carboxyfluorescein efflux from pure PG vesicles; type: biochemical; conditions: room temperature, after three hours
Method: Liptin/bilayer interactions were evaluated using conventional efflux measurements. These experiments make use of the self-quenching fluorescence of carboxyfluorescein. At relatively high concentrations (ca. 50 mM) the fluorescence from carboxyfluorescein is diminished by approximately 70% due to intermolecular interactions.
To perform efflux experiments vesicles were prepared by rehydrating a film of pure DPPG with a 50 mM solution of carboxyfluorescein in buffer. The solution was then extruded through a polycarbonate membrane with 200 nm pore size. […] Under these conditions, as the dye leaves the vesicles by efflux, fluorescence intensity increases. Monitoring the fluorescence intensity over time provides a measure of the rate at which dye crosses the membrane and an indication of the “leakiness” of the vesicle bilayer. Efflux can be expressed as % Efflux by the following expression:
[formula] where F0 is the fluorescence intensity corresponding to the initial sample when efflux first begins and F∞ is the intensity after efflux is complete and is determined by rupturing the vesicles by the addition of a small amount of concentrated detergent. F(t) is the fluorescence intensity measured as the efflux occurs. […]

E. coli strain MC4100 = assay: IPTG-induced PapD overexpression, gel electrophoresis; type: cell-based; conditions: IPTG and 5 μM
Description: The E. coli strain MC4100 will produce the pili chaperone PapD, a periplasmic protein, when induced by IPTG. […] The left panel represents the periplasmic fraction with lanes running left to right: ladder, NR, C, R, all with no IPTG; NR+IPTG, C+IPTG, R+IPTG (negative control was porphyrin A) or in the cytosol represented in the right panel with lanes running from left to right: NR, C, R, all with no IPTG; ladder, NR+IPTG, C+IPTG, R+IPTG (negative control was porphyrin A). (NR=no liptin, C=control, R=liptin). IPTG gets into the cytoplasm most efficiently via uphil symport via the plasma membrane protein lac permease when the plasma membrane is fully polarized.

Water solubility = type: physicochemical; conditions: TFA counterions
Description: Route 1 involves reductive amination of the uncharged glycine picket with an aldehyde. Route 2 involves amidation of the meso-phenylamines via addition of chloroacetyl chloride followed by the SN2 addition of amines to the resultant alkyl chloride (examples of alkyl, polyether, or benzyl amines are shown in Scheme 1). Route 2 is capable of furnishing a more diverse set of pickets, and modeling has shown that the use of the aryl amines shown in Scheme 1 would position their phenolic OH groups to allow for hydrogen bonding with the lipid's fatty acid ester groups. At the present time, porphyrins 3f-h have been furnished using Route 2. Route 3 involves the transformation of the meso-phenylamines into phenylisocyanates, followed by the addition of a substituted hydrazine (prepared from an aldehyde and hydrazine to form the hydrazone followed by reductive amination or with commercially available hydrazines) to furnish a semicarbazide group whose nitrogen can be charged (FIG. 6). The urea portion of the semicarbazide would provide additional strong hydrogen-bonding sites for the glycerol hydroxyl groups.

SMILES: NCC(=O)Nc1ccccc1-c1c2nc(c(-c3ccccc3NC(=O)CN)c3ccc([nH]3)c(-c3ccccc3NC(=O)CN)c3nc(c(-c4ccccc4NC(=O)CN)c4ccc1[nH]4)C=C3)C=C2.O=C(O)C(F)(F)F.O=C(O)C(F)(F)F.O=C(O)C(F)(F)F.O=C(O)C(F)(F)F [Liptin 3e]
- Ka [1]: 2800 M⁻¹
- % Efflux of carboxyfluorescein [2]: 5%
- PapD in periplasmic space or cytosol (E. coli strain MC4100): no PapD was found
- water solubility (Water solubility): quite water soluble

From patent US10668048B2, “Compounds for inhibiting bacterial growth via phosphatidylglycerol binding” (Wichita State University, priority 2016, dated 2020)
